# From patent US8178668B2, “2-aminopyridine kinase inhibitors” (OSI Pharmaceuticals, LLC, priority 2008, dated 2012)
# Where a name gives a salt, the structure may show the parent alone.
# Experiments:
# MET (human) = MET (human) (Homo sapiens, UniProt P08581); experiment: MET kinase AlphaScreen assay (Km of ATP); type: biochemical; details: ATP at Km; at least duplicate experiments
# How it was run: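 AlphaScreen detection with PT66 beads (1 h) follows a 60 min room-temperature MET reaction. Substrate is 200 ng/μL biotinylated poly(Glu,Tyr), with ATP set at an enzyme-optimized concentration. Buffer is HEPES pH 7.4 with MgCl2, MnCl2 and 0.334 mM vanadate, compounds at 1% DMSO.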
# RON (human) = RON (human) (Homo sapiens, UniProt Q04912); experiment: RON kinase AlphaScreen assay (Km of ATP); type: biochemical; details: ATP at Km; at least duplicate experiments
# How it was run: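 AlphaScreen with PT66 donor/acceptor beads, read after 1 h, detected phosphorylation of biotinylated poly(Glu,Tyr) by human RON. Enzyme-started reactions ran 30 min at room temperature with ATP at Km. Buffer was HEPES pH 7.4 with MgCl2, glycerol, vanadate and 1% DMSO.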
# RON (human), sequence (Q04912 25-1400): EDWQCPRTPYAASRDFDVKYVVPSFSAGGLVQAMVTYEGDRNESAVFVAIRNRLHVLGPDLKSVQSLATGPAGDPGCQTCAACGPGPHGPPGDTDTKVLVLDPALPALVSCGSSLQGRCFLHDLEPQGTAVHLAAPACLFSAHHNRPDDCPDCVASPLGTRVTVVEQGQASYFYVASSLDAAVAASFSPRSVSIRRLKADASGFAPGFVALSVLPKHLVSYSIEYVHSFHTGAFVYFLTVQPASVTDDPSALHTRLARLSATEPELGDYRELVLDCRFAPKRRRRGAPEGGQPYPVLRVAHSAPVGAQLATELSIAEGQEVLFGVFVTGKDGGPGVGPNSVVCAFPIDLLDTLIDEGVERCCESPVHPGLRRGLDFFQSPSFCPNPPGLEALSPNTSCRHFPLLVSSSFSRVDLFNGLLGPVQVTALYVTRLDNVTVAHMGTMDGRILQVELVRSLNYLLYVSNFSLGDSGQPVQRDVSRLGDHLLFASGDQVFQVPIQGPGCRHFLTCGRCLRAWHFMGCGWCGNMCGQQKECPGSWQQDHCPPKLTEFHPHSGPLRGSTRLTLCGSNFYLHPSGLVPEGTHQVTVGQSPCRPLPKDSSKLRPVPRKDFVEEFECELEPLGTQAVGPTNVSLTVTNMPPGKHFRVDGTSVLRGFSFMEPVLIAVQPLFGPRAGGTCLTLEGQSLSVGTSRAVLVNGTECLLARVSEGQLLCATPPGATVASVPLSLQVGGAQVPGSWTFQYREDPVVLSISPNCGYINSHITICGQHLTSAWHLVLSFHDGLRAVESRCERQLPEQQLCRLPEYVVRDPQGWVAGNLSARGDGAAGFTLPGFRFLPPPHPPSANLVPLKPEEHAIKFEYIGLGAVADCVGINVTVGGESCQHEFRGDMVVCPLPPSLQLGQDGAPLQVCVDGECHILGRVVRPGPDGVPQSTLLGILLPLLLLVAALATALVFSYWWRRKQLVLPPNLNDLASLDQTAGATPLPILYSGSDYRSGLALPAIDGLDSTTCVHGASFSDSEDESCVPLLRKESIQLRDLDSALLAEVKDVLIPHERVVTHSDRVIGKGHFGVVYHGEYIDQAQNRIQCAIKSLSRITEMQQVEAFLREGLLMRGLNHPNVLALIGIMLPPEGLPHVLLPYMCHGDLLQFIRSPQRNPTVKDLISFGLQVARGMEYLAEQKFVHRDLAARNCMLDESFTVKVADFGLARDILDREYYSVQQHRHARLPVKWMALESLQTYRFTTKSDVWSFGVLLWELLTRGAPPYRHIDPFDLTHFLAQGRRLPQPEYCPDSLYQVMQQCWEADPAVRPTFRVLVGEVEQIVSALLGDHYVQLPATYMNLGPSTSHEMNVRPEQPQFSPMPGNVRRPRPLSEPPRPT
# MET (human), sequence (P08581 25-1390): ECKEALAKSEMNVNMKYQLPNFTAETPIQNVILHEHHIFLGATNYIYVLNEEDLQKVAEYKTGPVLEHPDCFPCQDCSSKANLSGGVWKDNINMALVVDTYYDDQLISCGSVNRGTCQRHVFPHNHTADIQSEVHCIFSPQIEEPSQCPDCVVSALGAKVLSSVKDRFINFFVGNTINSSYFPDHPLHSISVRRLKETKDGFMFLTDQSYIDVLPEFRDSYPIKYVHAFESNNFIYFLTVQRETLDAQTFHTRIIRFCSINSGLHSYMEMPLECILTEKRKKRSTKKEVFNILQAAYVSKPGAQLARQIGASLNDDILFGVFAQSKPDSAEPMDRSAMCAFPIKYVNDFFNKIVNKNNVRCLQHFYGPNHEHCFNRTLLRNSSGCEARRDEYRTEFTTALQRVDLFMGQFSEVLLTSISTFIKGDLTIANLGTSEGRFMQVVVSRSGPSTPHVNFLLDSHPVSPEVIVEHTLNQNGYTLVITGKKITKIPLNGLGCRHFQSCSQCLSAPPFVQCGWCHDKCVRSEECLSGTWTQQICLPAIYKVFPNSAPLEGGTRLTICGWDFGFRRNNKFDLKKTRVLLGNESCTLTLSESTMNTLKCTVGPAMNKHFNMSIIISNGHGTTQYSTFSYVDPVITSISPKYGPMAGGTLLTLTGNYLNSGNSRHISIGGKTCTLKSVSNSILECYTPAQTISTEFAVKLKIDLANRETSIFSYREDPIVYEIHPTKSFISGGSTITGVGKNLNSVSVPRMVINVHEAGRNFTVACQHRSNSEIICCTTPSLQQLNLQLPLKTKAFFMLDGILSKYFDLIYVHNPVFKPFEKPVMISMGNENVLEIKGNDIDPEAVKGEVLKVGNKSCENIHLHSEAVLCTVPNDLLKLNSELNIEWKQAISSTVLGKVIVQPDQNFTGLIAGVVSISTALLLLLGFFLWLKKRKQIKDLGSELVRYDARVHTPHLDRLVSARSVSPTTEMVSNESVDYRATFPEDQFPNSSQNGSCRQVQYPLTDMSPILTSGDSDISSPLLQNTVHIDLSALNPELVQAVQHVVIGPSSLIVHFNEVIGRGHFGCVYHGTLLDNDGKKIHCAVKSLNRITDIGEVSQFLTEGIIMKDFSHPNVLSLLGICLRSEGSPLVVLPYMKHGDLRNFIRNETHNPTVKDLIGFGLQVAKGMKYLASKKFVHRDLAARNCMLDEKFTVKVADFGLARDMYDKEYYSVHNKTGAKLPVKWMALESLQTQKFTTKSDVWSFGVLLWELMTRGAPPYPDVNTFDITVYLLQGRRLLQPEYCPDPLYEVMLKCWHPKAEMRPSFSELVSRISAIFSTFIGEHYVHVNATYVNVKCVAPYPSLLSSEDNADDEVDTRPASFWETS
Compound,IC50 (MET (human)),IC50 (RON (human))
"CCOC(=O)COc1ccc(-c2cnc(N)c(-c3cc4c(Cl)ccc(F)c4cn3)c2)cc1 [Example 83, Ethyl-[4-(6-amino-5-(5-chloro-8-fluoroisoquinolin-3-yl)pyridin-3-yl)phenoxy]acetate]",1000 to 20000 nM,1000 to 20000 nM
"Nc1ncc(-c2ccc(O)nc2)cc1-c1cc2c(Cl)ccc(F)c2cn1 [Example 84, 6′-Amino-5′-(5-chloro-8-fluoroisoquinolin-3-yl)-3,3′-bipyridin-6-ol]",1000 to 20000 nM,1000 to 20000 nM
"Nc1ncc(-c2ccoc2)cc1-c1cc2c(Cl)ccc(F)c2cn1 [Example 85, 3-(5-Chloro-8-fluoroisoquinolin-3-yl)-5-furan-3-ylpyridin-2-amine]",1000 to 20000 nM,> 20000 nM
"Nc1ncc(-c2ccco2)cc1-c1cc2c(Cl)ccc(F)c2cn1 [Example 86, 3-(5-Chloro-8-fluoroisoquinolin-3-yl)-5-furan-2-ylpyridin-2-amine]",1000 to 20000 nM,> 20000 nM
"Nc1ncc(-c2cn[nH]c2)cc1-c1cc2c(Cl)ccc(F)c2cn1 [Example 87, 3-(5-Chloro-8-fluoroisoquinolin-3-yl)-5-(1H-pyrazol-4-yl)pyridin-2-amine]",1000 to 20000 nM,1000 to 20000 nM
"Nc1ncc(-c2ccc(NCCN3CCOCC3)nc2)cc1-c1cc2c(Cl)ccc(F)c2cn1 [Example 88, 3-(5-Chloro-8-fluoroisoquinolin-3-yl)-5-N6′-(2-morpholin-4-ylethyl)-3,3′-bipyridine-6,6′-diamine]",1000 to 20000 nM,1000 to 20000 nM
"Nc1ncc(-c2cc3ccccc3[nH]2)cc1-c1cc2c(Cl)ccc(F)c2cn1 [Example 89, 3-(5-Chloro-8-fluoroisoquinolin-3-yl)-5-(1H-indol-2-yl)pyridin-2-amine]",1000 to 20000 nM,1000 to 20000 nM
"COc1ccc(Cl)c2cc(-c3cc(-c4ccc(C(=O)O)cc4)cnc3N)ncc12 [Example 90, 4-[6-Amino-5-(5-chloro-8-methoxyisoquinolin-3-yl)-pyridin-3-yl]benzoic acid]",100 to 1000 nM,100 to 1000 nM
"COc1ccc(Cl)c2cc(-c3cc(-c4cccc(C(=O)O)c4)cnc3N)ncc12 [Example 91, 3-[6-Amino-5-(5-chloro-8-methoxyisoquinolin-3-yl)-pyridin-3-yl]benzoic acid]",> 20000 nM,> 20000 nM
"Nc1ncc(-c2cnn(C3CCNCC3)c2)cc1-c1cc2ccccc2o1 [Example 92, 3-Benzofuran-2-yl-5-(1-piperidin-4-yl-1H-pyrazol-4-yl)-pyridin-2-ylamine dihydrochloride]",100 to 1000 nM,1000 to 20000 nM
"Nc1ncc(-c2cnn(C3CCNCC3)c2)cc1-c1oc2ccccc2c1Cl [Example 93, 3-(3-Chlorobenzofuran-2-yl)-5-(1-piperidin-4-yl-1H-pyrazol-4-yl)-pyridin-2-ylamine dihydrochloride]",100 to 1000 nM,100 to 1000 nM
"Cc1c(-c2cc(-c3cnn(C4CCNCC4)c3)cnc2N)oc2ccccc12 [Example 94, 3-(3-Methylbenzofuran-2-yl)-5-(1-piperidin-4-yl-1H-pyrazol-4-yl)pyridin-2-ylamine bishydrochloride]",100 to 1000 nM,1000 to 20000 nM
"Nc1ncc(-c2cnn(C3CCNCC3)c2)cc1-c1oc2ccccc2c1Br [Example 95, 3-(3-Bromobenzofuran-2-yl)-5-(1-piperidin-4-yl-1H-pyrazol-4-yl)-pyridin-2-ylamine trifluoroacetate]",1000 to 20000 nM,1000 to 20000 nM
"Nc1ncc(-c2cnn(C3CCNCC3)c2)cc1-c1oc2ccccc2c1-c1ccccc1 [Example 96, 3-(3-Phenylbenzofuran-2-yl)-5-(1-piperidin-4-yl-1H-pyrazol-4-yl)pyridine-2-ylamine]",1000 to 20000 nM,1000 to 20000 nM
"Nc1ncc(-c2cnn(C3CCNCC3)c2)cc1-c1oc2ccccc2c1-c1cccc(Cl)c1F [Example 97, 3-[3-(3-Chloro-2-fluorophenyl)benzofuran-2-yl]-5-(1-piperidin-4-yl-1H-pyrazol-4-yl)pyridine-2-ylamine]",100 to 1000 nM,1000 to 20000 nM
"Nc1ncc(-c2cnn(C3CCNCC3)c2)cc1-c1oc2ccccc2c1-c1cccc(F)c1F [Example 98, 3-[3-(2,3-Difluorophenyl)benzofuran-2-yl]-5-(1-piperidin-4-yl-1H-pyrazol-4-yl)pyridine-2-ylamine]",100 to 1000 nM,1000 to 20000 nM
"Nc1ncc(-c2cnn([C@@H]3CCNC3)c2)cc1-c1cc2ccccc2o1 [Example 99, 3-Benzofuran-2-yl-5-((R)-1-pyrrolidin-3-yl-1H-pyrazol-4-yl)-pyridin-2-ylamine dihydrochloride]",100 to 1000 nM,100 to 1000 nM

Compound,IC50 (MET (human)),IC50 (RON (human))
"Nc1ncc(-c2cnn([C@H]3CCNC3)c2)cc1-c1cc2ccccc2o1 [Example 100, 3-Benzofuran-2-yl-5-((S)-1-pyrrolidin-3-yl-1H-pyrazol-4-yl)-pyridin-2-ylamine dihydrochloride]",100 to 1000 nM,100 to 1000 nM
"Cn1cc(-c2cnc(N)c(-c3cc4ccccc4o3)c2)cn1 [Example 101, 3-Benzofuran-2-yl-5-(1-methyl-1H-pyrazol-4-yl)-pyridin-2-ylamine bis-hydrochloride]",1000 to 20000 nM,1000 to 20000 nM
"CC(C)n1cc(-c2cnc(N)c(-c3cc4ccccc4o3)c2)cn1 [Example 102, 3-Benzofuran-2-yl-5-(1-isopropyl-1H-pyrazol-4-yl)-pyridin-2-ylamine bis-hydrochloride]",100 to 1000 nM,1000 to 20000 nM
"CN(C)C(=O)N1CCC(n2cc(-c3cnc(N)c(-c4cc5ccccc5o4)c3)cn2)CC1 [Example 103, 4-[4-(6-Amino-5-benzofuran-2-yl-pyridin-3-yl)-pyrazol-1-yl]-piperidine-1-carboxylic acid dimethylamide bis-hydrochloride]",100 to 1000 nM,1000 to 20000 nM
"Nc1ncc(-c2cnn(C3CCNCC3)c2)cc1-c1cc2ccccc2s1 [Example 104, 3-Benzo[b]thiophen-2-yl-5-(1-piperidin-4-yl-1H-pyrazol-4-yl)-pyridin-2-ylamine bishydrochloride]",≤ 100 nM,100 to 1000 nM
"Cc1c(-c2cc(-c3cnn(C4CCNCC4)c3)cnc2N)sc2ccccc12 [Example 105, 3-(3-Methylbenzo[b]thiophen-2-yl)-5-(1-piperidin-4-yl-1H-pyrazol-4-yl)pyridin-2-ylamine bishydrochloride]",1000 to 20000 nM,1000 to 20000 nM
"Nc1ncc(-c2cnn(C3CCNCC3)c2)cc1-c1nc2ccccc2o1 [Example 106, 3-Benzoxazol-2-yl-5-(1-piperidin-4-yl-1H-pyrazol-4-yl)-pyridin-2-ylamine dihydrochloride]",≤ 100 nM,100 to 1000 nM
"Nc1ncc(-c2cnn(C3CCNCC3)c2)cc1-c1nc2ccccc2s1 [Example 107, 3-Benzothiazol-2-yl-5-(1-piperidin-4-yl-1H-pyrazol-4-yl)-pyridin-2-ylamine dihydrochloride]",≤ 100 nM,≤ 100 nM
"CN1C2CCC1CC(n1cc(-c3cnc(N)c(-c4nc5ccccc5s4)c3)cn1)C2 (centres unmarked) [Example 108, 3-Benzothiazol-2-yl-5-[1-(8-methyl-8-azabicyclo [3.2.1]oct-3-yl)-1H-pyrazol-4-yl]-pyridin-2-ylamine trihydrochloride]",≤ 100 nM,≤ 100 nM
"CN1C2CCC1CC(n1cc(-c3cnc(N)c(-c4nc5ccccc5s4)c3)cn1)C2 (centres unmarked) [Example 109, 3-Benzothiazol-2-yl-5-[1-(8-methyl-8-azabicyclo[3.2.1]oct-3-yl)-1H-pyrazol-4-yl]-pyridin-2-ylamine]",≤ 100 nM,≤ 100 nM
"Nc1ncc(-c2cnn(C3CC4CCC(C3)N4)c2)cc1-c1nc2ccccc2s1 (centres unmarked) [Example 110, 5-[1-(8-Azabicyclo[3.2.1]oct-3-yl)-1H-pyrazol-4-yl]-3-benzothiazol-2-ylpyridin-2-ylamine]",100 to 1000 nM,100 to 1000 nM
"Nc1ncc(-c2cnn(C3CCOCC3)c2)cc1-c1nc2ccccc2s1 [Example 111, 3-Benzothiazol-2-yl-5-[1-(tetrahydropyran-4-yl)-1H-pyrazol-4-yl]-pyridin-2-ylamine]",100 to 1000 nM,100 to 1000 nM
"Nc1ncc(-c2cn[nH]c2)cc1-c1nc2ccccc2s1 [Example 112, 3-Benzothiazol-2-yl-5-(1H-pyrazol-4-yl)-pyridin-2-ylamine]",1000 to 20000 nM,1000 to 20000 nM
"Nc1ncc(-c2cnn(C3CCCCC3)c2)cc1-c1nc2ccccc2s1 [Example 113, 3-Benzothiazol-2-yl-5-(1-cyclohexyl-1H-pyrazol-4-yl)-pyridin-2-ylamine bis-hydrochloride]",100 to 1000 nM,1000 to 20000 nM
"COCCN1CCC(n2cc(-c3cnc(N)c(-c4nc5ccccc5s4)c3)cn2)CC1 [Example 114, 3-Benzothiazol-2-yl-5-1-[1-(2-methoxyethyl)-piperidin-4-yl]-1H-pyrazol-4-yl-pyridin-2-ylamine]",100 to 1000 nM,100 to 1000 nM
"Nc1ncc(-c2cnn(C3CCN(CC(F)(F)F)CC3)c2)cc1-c1nc2ccccc2s1 [Example 115, 3-Benzothiazol-2-yl-5-1-[1-(2,2,2-trifluoroethyl)-piperidin-4-yl]-1H-pyrazol-4-yl-pyridin-2-ylamine dihydrochloride]",1000 to 20000 nM,1000 to 20000 nM
"NC(=O)N1CCC(n2cc(-c3cnc(N)c(-c4nc5ccccc5s4)c3)cn2)CC1 [Example 116, 4-[4-(6-Amino-5-benzothiazol-2-yl-pyridin-3-yl)-pyrazol-1-yl]-piperidine-1-carboxamide bis-hydrochloride]",100 to 1000 nM,100 to 1000 nM
